Data on 29 compounds can be found in PubChem BioAssay AID204 (DTP/NCI, 2004).

For the test, the system named is BDF1 mice, P288 methotrexate-resistant leukemia, survival T/C. Kind of test: NCI In Vivo Anticancer Drug Screen. Data for tumor model P288 Lymphocytic Leukemia resistant to methotrexate; NSC 740 (intraperitoneal) in B6D2F1 (BDF1) mice. The following applies: endpoint: median survival time, higher = longer survival. As to the method: The antitumor activity of compounds was measured in mice bearing transplantable tumors. Survival or tumor size were measured and the results are expressed as the measurement made in the treated group (T) divided by the measurement made in the vehicle treated control group (C). The tumor model used in this assay is P288 Lymphocytic Leukemia resistant to methotrexate; NSC 740 (intraperitoneal) in B6D2F1 (BDF1) mice

Setting [1] is: dose: 0.5 mg/kg/injection, schedule: Q01DX010 (ip), vehicle: saline.
Where [2] appears, read: dose: 1.0 mg/kg/injection, schedule: Q01DX010 (ip), vehicle: saline.
Setting [3] is: dose: 2.0 mg/kg/injection, schedule: Q01DX010 (ip), vehicle: saline.
[4] abbreviates: dose: 4.0 mg/kg/injection, schedule: Q01DX010 (ip), vehicle: saline.
Where [5] appears, read: dose: 3.13 mg/kg/injection, schedule: Q01DX010 (ip), vehicle: saline.
[6] abbreviates: dose: 6.25 mg/kg/injection, schedule: Q01DX010 (ip), vehicle: saline.
Where [7] appears, read: dose: 12.5 mg/kg/injection, schedule: Q01DX010 (ip), vehicle: saline.
Where [8] appears, read: dose: 25.0 mg/kg/injection, schedule: Q01DX010 (ip), vehicle: saline.
The mark [9] stands for this setting: dose: 0.25 mg/kg/injection, schedule: Q01DX010 (ip), vehicle: saline.
[10] abbreviates: dose: 10.0 mg/kg/injection, schedule: Q01DX010 (ip), vehicle: saline.
Setting [11] is: dose: 20.0 mg/kg/injection, schedule: Q01DX010 (ip), vehicle: saline.
Where [12] appears, read: dose: 40.0 mg/kg/injection, schedule: Q01DX010 (ip), vehicle: saline.
Where [13] appears, read: dose: 8.0 mg/kg/injection, schedule: Q01DX010 (ip), vehicle: saline.
Where [14] appears, read: dose: 5.0 mg/kg/injection, schedule: Q01DX010 (ip), vehicle: saline.
Where [15] appears, read: dose: 16.0 mg/kg/injection, schedule: Q01DX010 (ip), vehicle: saline.
Where [16] appears, read: dose: 50.0 mg/kg/injection, schedule: Q01DX010 (ip), vehicle: saline.
Setting [17] is: dose: 25.0 mg/kg/injection, schedule: Q01DX010 (sc), vehicle: steriod suspending solution.
Setting [18] is: dose: 50.0 mg/kg/injection, schedule: Q01DX010 (sc), vehicle: steriod suspending solution.
Where [19] appears, read: dose: 100.0 mg/kg/injection, schedule: Q01DX010 (sc), vehicle: steriod suspending solution.

Values joined by “and” are separate entries in the source; they are usually repeats but may differ in a detail not shown here. Identical values can stand only once. Inconclusive results and toxic doses are left out.

Regarding `Nc1nc(N)c2nc(CNc3ccc(C(=O)NC(CCC(=O)O)C(=O)O)cc3)cnc2n1` (stereo not drawn), the T/C is 90 % of control and 111 % of control (dose: 0.03 mg/kg/injection, schedule: Q01DX010 (ip), vehicle: other); 100 % of control (dose: 0.05 mg/kg/injection, schedule: Q01DX010 (ip), vehicle: other); 100 % of control (dose: 0.1 mg/kg/injection, schedule: Q01DX010 (ip), vehicle: other); 110 % of control and 111 % of control (dose: 0.2 mg/kg/injection, schedule: Q01DX010 (ip), vehicle: other).
For `NC(=O)N(CCCl)N=O`, the T/C was 210 % of control and 213 % of control under setting [1]; 300 % of control under setting [2]; 168 % of control and 300 % of control under setting [3]; 90 % of control under setting [4].
Regarding `N=[N+]=CC(=O)OCC(N)C(=O)O` (stereo not drawn), the T/C was 110 % of control under setting [5]; 112 % of control and 120 % of control under setting [6]; 108 % of control and 120 % of control under setting [7]; 120 % of control under setting [8].
Regarding `C1CN1c1nc(N2CC2)nc(N2CC2)n1`, the T/C (dose: 0.13 mg/kg/injection, schedule: Q01DX010 (ip), vehicle: saline) was 90 % of control and 91 % of control; the T/C under setting [9] was 108 % of control and 110 % of control; the T/C under setting [2] is 90 % of control.
As to `Nc1ncnc2c1ccn2C1OC(CO)C(O)C1O` (stereo not drawn), the T/C runs as follows: under setting [9], 100 % of control; under setting [1], 100 % of control; under setting [2], 118 % of control; under setting [3], 100 % of control.
On to `CS(=O)(=O)OCC(O)C(O)COS(C)(=O)=O` (stereo not drawn), for which the T/C by setting is: (dose: 200.0 mg/kg/injection, schedule: Q01DX010 (ip), vehicle: saline) 86 % of control; (dose: 400.0 mg/kg/injection, schedule: Q01DX010 (ip), vehicle: saline) 93 % of control; (dose: 800.0 mg/kg/injection, schedule: Q01DX010 (ip), vehicle: saline) 100 % of control.
`CN(N=O)C(N)=O`: the T/C under setting [10] was 110 % of control, the T/C under setting [11] is 150 % of control and the T/C under setting [12] is 95 % of control.
Take `O=C(Nc1ccc(C2=NCCN2)cc1)c1ccc(C(=O)Nc2ccc(C3=NCCN3)cc2)c([N+](=O)[O-])c1`: the T/C was 150 % of control (dose: 6.0 mg/kg/injection, schedule: Q01DX010 (ip), vehicle: saline); 160 % of control and 172 % of control under setting [13]; 238 % of control and 285 % of control (dose: 12.0 mg/kg/injection, schedule: Q01DX010 (ip), vehicle: saline); 161 % of control and 165 % of control (dose: 18.0 mg/kg/injection, schedule: Q01DX010 (ip), vehicle: saline).
Turning to `CCN(CC)c1ccc2cc3ccc(=[N+](CC)CC)cc-3oc2c1`, the T/C reads like this: under setting [2], 90 % of control; under setting [3], 104 % of control; under setting [4], 100 % of control; under setting [13], 90 % of control.
In the case of `N#[N+]c1cnc([O-])[nH]c1=O`, the T/C was 100 % of control (dose: 1.25 mg/kg/injection, schedule: Q01DX010 (ip), vehicle: saline); 116 % of control and 118 % of control (dose: 2.5 mg/kg/injection, schedule: Q01DX010 (ip), vehicle: saline).
Consider `[I][Hg][CH2]C1COC([CH2][Hg][I])CO1` (stereo not drawn), for which the T/C was 86 % of control (dose: 1.56 mg/kg/injection, schedule: Q01DX010 (ip), vehicle: saline); 95 % of control under setting [5]; 100 % of control under setting [6]; 100 % of control under setting [7]; 87 % of control under setting [8].
In the case of `CN(C)c1ccc(/C=C/c2ccnc3ccccc23)cc1`, the T/C by setting is: under setting [14], 104 % of control; under setting [10], 90 % of control and 100 % of control; under setting [11], 90 % of control and 100 % of control; under setting [12], 90 % of control and 91 % of control.
On to `CN(N=O)C(=O)NC(C=O)C(O)C(O)C(O)CO` (stereo not drawn), for which the T/C is 100 % of control under setting [7]; 115 % of control under setting [8]; 105 % of control (dose: 100.0 mg/kg/injection, schedule: Q01DX010 (ip), vehicle: saline).
As for `NC(Cc1ccc(N(CCCl)CCCl)cc1)C(=O)O` (stereo not drawn), the T/C (dose: 1.0 mg/kg/injection, schedule: Q01DX010 (ip), vehicle: other) was 160 % of control; the T/C (dose: 2.0 mg/kg/injection, schedule: Q01DX010 (ip), vehicle: other) is 165 % of control; the T/C (dose: 4.0 mg/kg/injection, schedule: Q01DX010 (ip), vehicle: other) is 215 % of control; the T/C under setting [14] is 160 % of control; the T/C under setting [10] is 186 % of control; the T/C under setting [11] is 105 % of control.
In the case of `C[C@H]1C(=O)O[C@@H]2CCN3CC=C(COC(=O)[C@](C)(O)[C@@]1(C)O)[C@H]23`, the T/C by setting is: under setting [5], 100 % of control and 103 % of control; under setting [6], 91 % of control and 111 % of control; under setting [7], 91 % of control; under setting [8], 91 % of control and 96 % of control.
Regarding `C=CC(CN1CC1)OC(C)=O` (stereo not drawn), the T/C under setting [3] was 90 % of control and 95 % of control; the T/C under setting [4] was 100 % of control and 118 % of control; the T/C under setting [15] is 95 % of control and 100 % of control.
Consider `CS(=O)(=O)OCCCCOS(C)(=O)=O`, for which the T/C runs as follows: under setting [6], 87 % of control; under setting [7], 106 % of control; under setting [8], 93 % of control; under setting [16], 87 % of control.
On to `C[C@]12C=CC(=O)C=C1CC[C@@H]1[C@@H]2[C@@H](O)C[C@@]2(C)[C@H]1CC[C@]2(O)C(=O)CO`, for which the T/C was 118 % of control under setting [17]; 109 % of control under setting [18]; 100 % of control under setting [19]; 100 % of control (dose: 200.0 mg/kg/injection, schedule: Q01DX010 (sc), vehicle: steriod suspending solution).
For the compound `N#CCSc1ncnc2nc[nH]c12`, the T/C was 91 % of control (dose: 15.0 mg/kg/injection, schedule: Q01DX010 (ip), vehicle: saline); 94 % of control and 95 % of control (dose: 30.0 mg/kg/injection, schedule: Q01DX010 (ip), vehicle: saline); 91 % of control and 94 % of control (dose: 60.0 mg/kg/injection, schedule: Q01DX010 (ip), vehicle: saline); 94 % of control (dose: 120.0 mg/kg/injection, schedule: Q01DX010 (ip), vehicle: saline).
Regarding `CCCCn1cnc2c(=S)nc[nH]c21`, the T/C under setting [3] was 86 % of control, the T/C under setting [4] is 86 % of control and the T/C under setting [13] was 90 % of control.
Turning to `Nc1nc(=S)c2ncn(C3OC(CO)C(O)C3O)c2[nH]1` (stereo not drawn), the T/C is, setting by setting: under setting [3], 90 % of control and 91 % of control and 115 % of control; under setting [4], 91 % of control and 96 % of control and 120 % of control; under setting [13], 93 % of control; under setting [15], 90 % of control (2×) and 91 % of control.
As to `CC1CCOS(=O)O1` (stereo not drawn), the T/C runs as follows: under setting [10], 91 % of control and 95 % of control; under setting [11], 90 % of control; under setting [12], 95 % of control; (dose: 80.0 mg/kg/injection, schedule: Q01DX010 (ip), vehicle: saline) 90 % of control.
Regarding `O=c1[nH]cc(F)c(=O)[nH]1`, the T/C under setting [14] was 108 % of control; the T/C under setting [11] is 159 % of control; the T/C under setting [12] is 91 % of control and 95 % of control.
As for `CC(=O)O[C@]1(C(C)=O)CC[C@H]2[C@@H]3C[C@H](C)C4=CC(=O)C=C[C@]4(C)[C@@]3(F)[C@@H](O)C[C@@]21C`, the T/C runs as follows: (dose: 12.5 mg/kg/injection, schedule: Q01DX010 (sc), vehicle: steriod suspending solution) 100 % of control; under setting [17], 110 % of control; under setting [18], 105 % of control; under setting [19], 100 % of control.
With `c1ccc(CCSc2ncnc3nc[nH]c23)cc1`, the T/C is 86 % of control (dose: 15.6 mg/kg/injection, schedule: Q01DX010 (ip), vehicle: saline); 86 % of control (dose: 31.3 mg/kg/injection, schedule: Q01DX010 (ip), vehicle: saline); 100 % of control (dose: 62.5 mg/kg/injection, schedule: Q01DX010 (ip), vehicle: saline); 87 % of control (dose: 500.0 mg/kg/injection, schedule: Q01DX010 (ip), vehicle: saline).
For the compound `c1ccc(CNc2ncnc3[nH]ncc23)cc1`, the T/C runs as follows: under setting [13], 90 % of control and 115 % of control; under setting [15], 100 % of control and 110 % of control; (dose: 32.0 mg/kg/injection, schedule: Q01DX010 (ip), vehicle: saline) 100 % of control and 110 % of control; (dose: 64.0 mg/kg/injection, schedule: Q01DX010 (ip), vehicle: saline) 110 % of control.
Turning to `CSc1ncnc2nc[nH]c12`, the T/C is 91 % of control and 100 % of control under setting [5]; 91 % of control and 96 % of control under setting [6]; 90 % of control under setting [16].
For the compound `COS(C)(=O)=O`, under setting [16], the T/C was 90 % of control.
As to `CS(=O)(=O)OCCN(CCOS(C)(=O)=O)c1ccc(N=O)cc1`, under setting [1], the T/C is 120 % of control.
